Source: patent US20260041093A1, “Ionic Derivatives Of Aromatic Carboxylic Acid For Use As Plant Stimulants, Method For Stimulating Plants And Use Of These Derivatives For Manufacturing Compositions For Stimulating Plants” (FUNDACJA UNIWERSYTETU IM. ADAMA MICKIEWICZA W POZNANIU, priority 2022, published 2026)
Where two headings read alike, the source gives them in different places.

What was measured:
powdery mildew fungus [1] = type: in vivo, tomato; conditions: 80 mg/L, watered twice; 2 weeks after infection
Procedure: Tomato plants, at the stage of the first pair of developed true leaves, were watered twice with a solution of substance 1-32 at a concentration of 80 mg/L, at a weekly interval. The control was tomato plants watered only with water. […] The suspension was prepared from culture on solid medium. Protection against biotic stress was evaluated by comparing the area of leaves affected by infection.

[2] = tested on: Pseudomonas syringae pv. Tomato (Pst); conditions: watered twice, Pst 10^5, 2 weeks after infection
Procedure: Tobacco plants at the stage of 3 developed leaves were watered twice, at a weekly interval, with a solution of test substances 1-11 at concentrations of 10, 40, 80 mg/L. The control was tobacco plants watered with water only. One week after the second treatment, a suspension of Pst bacteria at a concentration of 10^5 was spotted into the leaves using an insulin syringe (without a needle). The suspension was prepared from a two-day culture of Pst on solid medium. Protection against biotic stress was evaluated by the proliferation of bacteria in the leaves at the insertion site and the formation of a necrotic spot, compared to the control.
We proceeded as in Example 30, with the effectiveness of protection against biotic stress tested against bacterial cell concentrations raised to about 10^6.

TMV [3] = assay: Protection of tobacco against TMV, single spray, comparison with BION (Example 26); type: in vivo, Nicotiana tabacum cv. Xanthi; conditions: sprayed once, infected a week later
Procedure: Tobacco plants (Nicotiana tabacum) cv. Xanthi at the stage of three developed leaves were sprayed once with solutions of substance 1-5 or BION™ at concentrations of 10, 40, 80 mg/L. A week later, they were mechanically infected with TMV by rubbing the leaves with a square soaked in a suspension of purified virus, with a concentration of about 2 μg/ml. The level of protection against the effects of biotic stress was evaluated by comparing the number of necrotic spots caused by TMV on the leaves of plants treated with substances 1-5 and BION™ and control plants.
A reduction in the number of necrotic spots indicates protection from the effects of the biotic agent on the plant.

Brome Mosaic Virus (BMV) = assay: Protection of barley against Brome Mosaic Virus infection by watering (Examples 28 and 29); type: in vivo; conditions: 80 mg/L, watered twice; 2 weeks after infection
TMV [4] = assay: Protection of tobacco against TMV infected 3 weeks after the last treatment (Example 27); type: in vivo; conditions: infected with TMV 3 weeks after the last treatment
Procedure: They proceeded as in Example 24, using substances 1-4 at concentrations of 10, 40 and 80 mg/L for treatment, with treated and control plants divided into 3 batches and their leaves infected with the virus 1, 2 and 3 weeks after the last treatment, respectively. […] A similar effect occurred with spraying.

powdery mildew fungus [5] = assay: Protection of tomato against powdery mildew by spraying (Example 35); type: in vivo, Lycopersicon Esculentum Mill tomato; conditions: 40 mg/l, sprayed twice; 2 weeks after pathogen inoculation
Procedure: […] The control was tomato plants watered only with water. […] The suspension was prepared from culture on solid medium. Protection against biotic stress was evaluated by comparing the area of leaves affected by infection.
Proceeded in the way as described in Example 34, with the difference that plants were sprayed and not watered.

COc1c(Cl)cccc1C(=O)[O-].C[N+](C)(C)CCO [choline 2-methoxy-3-chlorobenzoate]
% reduction in necrotic spots compared to control (powdery mildew fungus [1]): 49%
% reduction in necrotic spots compared to control ([2]; 10 mg/L): >10%
% reduction in necrotic spots compared to control ([2]; 40 mg/L): 25%
% reduction in necrotic spots compared to control ([2]; 80 mg/L): 39%

2-hydroxyethyl(tributyl)ammonium 3-chlorosalicylate
% reduction in necrotic spots compared to control (powdery mildew fungus [1]): 66%
% reduction in necrotic spots compared to control (TMV [3]; 10 mg/L): 26%
% reduction in necrotic spots compared to control (TMV [3]; 40 mg/L): 26%
% reduction in necrotic spots compared to control (TMV [3]; 80 mg/L): 30%

C[N+](C)(C)CCO.O=C([O-])c1cc(F)ccc1O [choline 5-fluorosalicylate]
% reduction in necrotic spots compared to control (Brome Mosaic Virus (BMV)): 88%
% reduction in necrotic spots compared to control (powdery mildew fungus [1]): 54%

C[N+](C)(C)CCO.O=C([O-])c1cccc(I)c1O [choline 3-iodosalicylate]
% reduction in necrotic spots compared to control (Brome Mosaic Virus (BMV)): 77%
% reduction in necrotic spots compared to control (powdery mildew fungus [1]): 69%

2-chloroethyl(trimethyl)ammonium 3-chlorosalicylate
% reduction in necrotic spots compared to control (Brome Mosaic Virus (BMV)): 36%
% reduction in necrotic spots compared to control (powdery mildew fungus [1]): 57%

C[N+](C)(C)CCO.O=C([O-])c1cc(Br)ccc1O [choline 5-bromosalicylate]
% reduction in necrotic spots compared to control (Brome Mosaic Virus (BMV)): 69%
% reduction in necrotic spots compared to control (powdery mildew fungus [1]): 79%

2-hydroxyethyl(tridecyl)ammonium 3-chlorosalicylate
% reduction in necrotic spots compared to control (powdery mildew fungus [1]): 64%
% reduction in necrotic spots compared to control (TMV [3]; 10 mg/L): 25%
% reduction in necrotic spots compared to control (TMV [3]; 40 mg/L): 46%
% reduction in necrotic spots compared to control (TMV [3]; 80 mg/L): 65%

COc1ccccc1C(=O)[O-].C[N+](C)(C)CCO [choline 2-methoxybenzoate]
% reduction in necrotic spots compared to control (powdery mildew fungus [1]): 44%
% reduction in necrotic spots compared to control ([2]; 10 mg/L): 54%
% reduction in necrotic spots compared to control ([2]; 40 mg/L): 68%
% reduction in necrotic spots compared to control ([2]; 80 mg/L): 67%

2-iodoethyl(trimethyl)ammonium 3-chlorosalicylate
% reduction in necrotic spots compared to control (Brome Mosaic Virus (BMV)): 64%
% reduction in necrotic spots compared to control (powdery mildew fungus [1]): 47%

C[N+](C)(C)CCO.O=C([O-])c1cc(I)cc(I)c1O
% reduction in necrotic spots compared to control (Brome Mosaic Virus (BMV)): 46%
% reduction in necrotic spots compared to control (powdery mildew fungus [1]): 78%

CCOc1c(Cl)cccc1C(=O)[O-].C[N+](C)(C)CCO [choline 2-ethoxy-3-chlorobenzoate]
% reduction in necrotic spots compared to control (powdery mildew fungus [1]): 43%
% reduction in necrotic spots compared to control ([2]; 10 mg/L): 24%
% reduction in necrotic spots compared to control ([2]; 40 mg/L): 33%
% reduction in necrotic spots compared to control ([2]; 80 mg/L): 39%

2-hydroxyethyl(triethyl)ammonium 3-chlorosalicylate
% reduction in necrotic spots compared to control (powdery mildew fungus [1]): 58%
% reduction in necrotic spots compared to control (TMV [3]; 10 mg/L): 15%
% reduction in necrotic spots compared to control (TMV [3]; 40 mg/L): 26%
% reduction in necrotic spots compared to control (TMV [3]; 80 mg/L): 37%

2-ethoxyethyl(trimethyl)ammonium 3-chlorosalicylate
% reduction in necrotic spots compared to control (powdery mildew fungus [1]): 55%
% reduction in necrotic spots compared to control (TMV [4]; 10 mg/L): 26%
% reduction in necrotic spots compared to control (TMV [4]; 40 mg/L): 26%
% reduction in necrotic spots compared to control (TMV [4]; 80 mg/L): 30%

C[N+](C)(C)CCO.O=C([O-])c1cccc(F)c1O [choline 3-fluorosalicylate]
% reduction in necrotic spots compared to control (Brome Mosaic Virus (BMV)): 56%
% reduction in necrotic spots compared to control (powdery mildew fungus [1]): 52%

C[N+](C)(C)CCO.O=C([O-])c1c(F)ccc(Cl)c1O [choline 3-chloro-6-fluorosalicylate]
Reduction in necrotic spots (white patches) compared to control (powdery mildew fungus [5]): 45%
% reduction in necrotic spots compared to control ([2]; 10 mg/L): 19%
% reduction in necrotic spots compared to control ([2]; 40 mg/L): 28%
% reduction in necrotic spots compared to control ([2]; 80 mg/L): 47%

C[N+](C)(C)CCO.O=C([O-])c1c(I)ccc(Cl)c1O [choline 3-chloro-6-iodosalicylate]
Reduction in necrotic spots (white patches) compared to control (powdery mildew fungus [5]): 47%

2-methoxyethyl(trimethyl)ammonium 3-chlorosalicylate
% reduction in necrotic spots compared to control (powdery mildew fungus [1]): 67%
% reduction in necrotic spots compared to control (TMV [4]; 10 mg/L): 15%
% reduction in necrotic spots compared to control (TMV [4]; 40 mg/L): 26%
% reduction in necrotic spots compared to control (TMV [4]; 80 mg/L): 37%

2-bromoethyl(trimethyl)ammonium 3-chlorosalicylate
% reduction in necrotic spots compared to control (Brome Mosaic Virus (BMV)): 95%
% reduction in necrotic spots compared to control (powdery mildew fungus [1]): 54%

C[N+](C)(C)CCO.O=C([O-])c1cc(Br)cc(Br)c1O
% reduction in necrotic spots compared to control (Brome Mosaic Virus (BMV)): 38%
% reduction in necrotic spots compared to control (powdery mildew fungus [1]): 72%

CCOc1ccccc1C(=O)[O-].C[N+](C)(C)CCO [choline 2-ethoxybenzoate]
% reduction in necrotic spots compared to control (powdery mildew fungus [1]): 43%
% reduction in necrotic spots compared to control ([2]; 10 mg/L): 56%
% reduction in necrotic spots compared to control ([2]; 40 mg/L): 60%
% reduction in necrotic spots compared to control ([2]; 80 mg/L): 82%

2-fluoroethyl(trimethyl)ammonium 3-chlorosalicylate
% reduction in necrotic spots compared to control (Brome Mosaic Virus (BMV)): 56%
% reduction in necrotic spots compared to control (powdery mildew fungus [1]): 36%

C[N+](C)(C)CCO.O=C([O-])c1cccc(Br)c1O [choline 3-bromosalicylate]
% reduction in necrotic spots compared to control (Brome Mosaic Virus (BMV)): 21%
% reduction in necrotic spots compared to control (powdery mildew fungus [1]): 72%

CC(=O)Oc1ccccc1C(=O)[O-].C[N+](C)(C)CCO [choline 2-acetoxybenzoate]
% reduction in necrotic spots compared to control (powdery mildew fungus [1]): 52%
% reduction in necrotic spots compared to control ([2]; 10 mg/L): 25%
% reduction in necrotic spots compared to control ([2]; 40 mg/L): 29%
% reduction in necrotic spots compared to control ([2]; 80 mg/L): 69%

CC(=O)Oc1c(Cl)cccc1C(=O)[O-].C[N+](C)(C)CCO [choline 2-acetoxy-3-chlorobenzoate]
% reduction in necrotic spots compared to control (powdery mildew fungus [1]): 45%
% reduction in necrotic spots compared to control ([2]; 10 mg/L): >10%
% reduction in necrotic spots compared to control ([2]; 40 mg/L): 28%
% reduction in necrotic spots compared to control ([2]; 80 mg/L): 35%

ethyl(trimethyl)ammonium 3-chlorosalicylate
% reduction in necrotic spots compared to control (powdery mildew fungus [1]): 63%
% reduction in necrotic spots compared to control (TMV [4]; 10 mg/L): 25%
% reduction in necrotic spots compared to control (TMV [4]; 40 mg/L): 46%
% reduction in necrotic spots compared to control (TMV [4]; 80 mg/L): 65%

C[N+](C)(C)CCO.O=C([O-])c1cc(F)cc(F)c1O
% reduction in necrotic spots compared to control (Brome Mosaic Virus (BMV)): 27%
% reduction in necrotic spots compared to control (powdery mildew fungus [1]): 70%

C[N+](C)(C)CCO.O=C([O-])c1cc(I)ccc1O [choline 5-iodosalicylate]
% reduction in necrotic spots compared to control (Brome Mosaic Virus (BMV)): 35%
% reduction in necrotic spots compared to control (powdery mildew fungus [1]): 65%

2-hydroxyethyl(tridodecyl)ammonium 3-chlorosalicylate
% reduction in necrotic spots compared to control (powdery mildew fungus [1]): 47%
% reduction in necrotic spots compared to control (TMV [3]; 10 mg/L): 59%
% reduction in necrotic spots compared to control (TMV [3]; 40 mg/L): 64%
% reduction in necrotic spots compared to control (TMV [3]; 80 mg/L): 89%

C[N+](C)(C)CCO.O=C([O-])c1c(Br)ccc(Cl)c1O [choline 3-chloro-6-bromosalicylate]
Reduction in necrotic spots (white patches) compared to control (powdery mildew fungus [5]): 49%
% reduction in necrotic spots compared to control ([2]; 10 mg/L): 24%
% reduction in necrotic spots compared to control ([2]; 40 mg/L): 29%
% reduction in necrotic spots compared to control ([2]; 80 mg/L): 40%
